Patent US4595695A, “1'-ethoxycarbonyloxyethyl ester of valproic acid, its preparation and pharmaceutical compositions containing it” (Teva Pharmaceutical Industries Ltd., priority 1983, dated 1986)
Read-outs that look alike come from different tables or passages of the source.

Tests used:
[1] = pharmacokinetic parameters of VPA in dogs after oral administration of the ester or DEPAKINE;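 as to all read-outs here: comparator arm received VPA orally as the free acid rather than as the ester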; type: in vivo, dog; conditions: for ka, absorption rate constant / CL/F / AUC / Vd/F / k el / half-life / Tmax: VPA, 400 mg; for CL/F / AUC / Vd/F / k el / half-life / Tmax: dog, in vivo, po; for AUC: read-out: AUC, area under the plasma conc. vs. time curve (row head is drawing 3) (converted); for Vd/F: read-out: V; for k el: read-out: ke, elimination rate constant (converted); for half-life: read-out: t1/2 elimin. (converted); for Tmax: read-out: t max obs, observed time to reach peak plasma concentration (converted)
rats = assay: toxicity after oral administration to rats; type: in vivo, rat; conditions: 20 and 100 mg/kg
[2] = VPA plasma levels after oral administration of the ester to five dogs; type: in vivo, dog; set-up: key: --: Undetectable concentration of VPA
Procedure: Concentration of VPA after oral administration of the ester of this invention to five dogs are presented in the following Table I. Each plasma sample was assayed three times and the results presented in Table I are mean ±S.D. of these analyses.

[3] = expected VPA plasma concentration after single oral administration of the ester to man; type: in vivo
Description: Based on the prolonged absorption of VPA after administration of the ester, this new prodrug might be administered to epileptic patients twice or even once a day.

[4] = stability of the ester in plasma in vitro; type: in vitro ADME
Procedure: (§1) The ester was quite stable at -20° C. or after HCl was added to the plasma mixture. […] All these half-life time calculations were done by assuming a first order linear kinetics of hydrolysis of the ester to valproic acid.

[5] = stability of the ester in 0.01 N HCl; type: physicochemical; conditions: room temperature, first order kinetics, read-out: stability half-life time in 0.01 N HCl (converted)
Procedure: as §1

animals = conditions: in vivo; cited from earlier work
[6] = physiological pH; cited from earlier work
[7] = combination therapy with other anti-epileptic drugs; cited from earlier work
[8] = oral; cited from earlier work

CCCC(CCC)C(=O)OC(C)OC(=O)OCC (stereo not drawn) [1'-ethoxycarbonyloxyethyl ester, 1'-ethoxycarbonyloxyethyl ester of valproic acid]
ka, absorption rate constant ([1]; dog 1, oral): 0.015 min⁻¹
ka, absorption rate constant ([1]; dog 2, oral): 0.02 min⁻¹
ka, absorption rate constant ([1]; dog 3, oral): 0.02 min⁻¹
ka, absorption rate constant ([1]; dog 4, oral): 0.01 min⁻¹
ka, absorption rate constant ([1]; dog 5, oral): 0.04 min⁻¹
CL/F ([1]; dog 1): 66.7 mL/min
AUC ([1]; dog 1, oral): 76800 ng·h/mL
Vd/F ([1]; dog 1, oral): 12.1 L
k el ([1]; dog 1, oral): 9.17e-05 s⁻¹
half-life ([1]; dog 1, oral): 126 min
Tmax ([1]; dog 1, oral): 2 h
CL/F ([1]; dog 2): 34.8 mL/min
AUC ([1]; dog 2, oral): 167000 ng·h/mL
Vd/F ([1]; dog 2, oral): 5.35 L
k el ([1]; dog 2, oral): 0.000108 s⁻¹
half-life ([1]; dog 2, oral): 107 min
Tmax ([1]; dog 2, oral): 1.4 h
CL/F ([1]; dog 3): 61.5 mL/min
AUC ([1]; dog 3, oral): 67700 ng·h/mL
Vd/F ([1]; dog 3, oral): 5.08 L
k el ([1]; dog 3, oral): 0.00202 s⁻¹
half-life ([1]; dog 3, oral): 57 min
Tmax ([1]; dog 3, oral): 1.17 h
CL/F ([1]; dog 4): 56.5 mL/min
AUC ([1]; dog 4, oral): 81200 ng·h/mL
Vd/F ([1]; dog 4, oral): 8.69 L
k el ([1]; dog 4, oral): 0.000108 s⁻¹
half-life ([1]; dog 4, oral): 107 min
Tmax ([1]; dog 4, oral): 2.5 h
CL/F ([1]; dog 5): 42.7 mL/min
AUC ([1]; dog 5, oral): 142000 ng·h/mL
Vd/F ([1]; dog 5, oral): 7.24 L
Tmax ([1]; dog 5, oral): 1.2 h
VPA plasma levels between 30 to 240 minutes ([1]; dogs, after ester administration): More or less constant plasma levels
difference between the maximal and minimal steady state levels ([1]; dogs, between 30 to 240 minutes): less than a two-fold difference
distribution and elimination parameters of VPA compared between the two drug products ([1]; dogs, exception: V in dog number 1): not significantly different
absorption rate of VPA compared with free acid ([1]; dogs, oral, ester versus free acid): two to five times slower
toxicity (rats): did not show any toxicity
VPA plasma levels ([2]; dog 1, 15 min): --
VPA plasma levels ([2]; dog 1, 660 min): --
VPA plasma levels ([2]; dog 1, 720 min): --
VPA plasma levels ([2]; dog 1, 780 min): --
VPA plasma levels ([2]; dog 1, 840 min): --
VPA plasma levels ([2]; dog 1, 900 min): --
VPA plasma levels ([2]; dog 2, 660 min): --
VPA plasma levels ([2]; dog 2, 840 min): --
VPA plasma levels ([2]; dog 2, 900 min): --
VPA plasma levels ([2]; dog 3, 720 min): --
VPA plasma levels ([2]; dog 3, 780 min): --
VPA plasma levels ([2]; dog 3, 840 min): --
VPA plasma levels ([2]; dog 3, 900 min): --
VPA plasma levels ([2]; dog 4, 45 min): --
VPA plasma levels ([2]; dog 4, 60 min): --
VPA plasma levels ([2]; dog 4, 75 min): --
VPA plasma levels ([2]; dog 4, 210 min): --
VPA plasma levels ([2]; dog 4, 660 min): --
VPA plasma levels ([2]; dog 4, 720 min): --
VPA plasma levels ([2]; dog 4, 780 min): --
VPA plasma levels ([2]; dog 4, 840 min): --
VPA plasma levels ([2]; dog 4, 900 min): --
VPA plasma levels ([2]; dog 5, 30 min): --
VPA plasma levels ([2]; dog 5, 660 min): --
VPA plasma levels ([2]; dog 5, 780 min): --
VPA plasma levels ([2]; dog 5, 840 min): --
VPA plasma levels ([2]; dog 5, 900 min): --
expected VPA concentration profile in man [3]: prolonged pseudo steady state concentration
stability at -20° C. or after HCl was added to the plasma mixture ([4]; -20° C. or HCl added to plasma mixture): quite stable
transformation to valproic acid in plasma ([4]; plasma in vitro, room temperature): transformed to valproic acid
half-life ([4]; plasma in vitro, room temperature, first order kinetics): 134 min
half-life [5]: 1940 min

CCCC(CCC)COC(=O)C(CCC)CCC [2-propylpentanol-di-n-propyl acetate]
toxicity to animals (animals): very toxic to animals

CCCC(CCC)C(=O)O [VPA, di-n-propylacetic acid]
ionization of carboxylic group [6]: significantly ionized
half life time in combination therapy [7]: even shorter than in a single therapy

CCCC(CCC)C(N)=O [VPD, Valpromide-dipropylacetamide]
absorption compared with VPA [8]: slower absorption than VPA
bioavailability [8]: low bioavailability
